Reference: ChEMBL document CHEMBL5724914, “Linking interpersonal differences in gut microbiota composition and drug biotransformation activity” (2024)

Test: (§1) The drug is tested on WLS-038 corresponding to human gut metagenome with ENA study accession number: PRJEB37062 and ENA sample accession number: ERS12561745 for biotransformation under anaerobic condition. The drug concentrations were measured over 9 timepoints collected between 0 and 24 hours of incubation by liquid-chromatography-coupled mass spectrometry (LC–MS)
Settings: 2 µM
Further: call rule not given here.

Row | SMILES | Bacterial Biotransformation
1 | CN(C)C(=O)Oc1cc(OC(=O)N(C)C)cc(C(O)CNC(C)(C)C)c1 (centres undefined) [BAMBUTEROL] | Compound NOT metabolized
2 | CC(C)C[C@H]1C(=O)N2CCC[C@H]2[C@]2(O)O[C@](NC(=O)[C@@H]3C=C4c5cccc6[nH]c(Br)c(c56)C[C@H]4N(C)C3)(C(C)C)C(=O)N12.CS(=O)(=O)O [BROMOCRIPTINE MESYLATE] | Compound metabolized

Test: as §1, with “Z-029” for “WLS-038”, “rat” for “human”, “ERS12561828” for “ERS12561745”
Settings: 2 µM

Row | SMILES | Bacterial Biotransformation
3 | CN(C)C(=O)Oc1cc(OC(=O)N(C)C)cc(C(O)CNC(C)(C)C)c1 (centres undefined) [BAMBUTEROL] | Compound NOT metabolized
4 | CC(C)C[C@H]1C(=O)N2CCC[C@H]2[C@]2(O)O[C@](NC(=O)[C@@H]3C=C4c5cccc6[nH]c(Br)c(c56)C[C@H]4N(C)C3)(C(C)C)C(=O)N12.CS(=O)(=O)O [BROMOCRIPTINE MESYLATE] | Compound metabolized

Test: as §1, with “Z-024” for “WLS-038”, “pig” for “human”, “ERS12561823” for “ERS12561745”
Settings: 2 µM

Row | SMILES | Bacterial Biotransformation
5 | CN(C)C(=O)Oc1cc(OC(=O)N(C)C)cc(C(O)CNC(C)(C)C)c1 (centres undefined) [BAMBUTEROL] | Compound NOT metabolized
6 | CC(C)C[C@H]1C(=O)N2CCC[C@H]2[C@]2(O)O[C@](NC(=O)[C@@H]3C=C4c5cccc6[nH]c(Br)c(c56)C[C@H]4N(C)C3)(C(C)C)C(=O)N12.CS(=O)(=O)O [BROMOCRIPTINE MESYLATE] | Compound metabolized

Settings: human gut metagenome, 24 h, 2 µM

Row | SMILES | Bacterial Biotransformation
7 | CN(C)C(=O)Oc1cc(OC(=O)N(C)C)cc(C(O)CNC(C)(C)C)c1 (centres undefined) [BAMBUTEROL] | Compound NOT metabolized
8 | CC(C)C[C@H]1C(=O)N2CCC[C@H]2[C@]2(O)O[C@](NC(=O)[C@@H]3C=C4c5cccc6[nH]c(Br)c(c56)C[C@H]4N(C)C3)(C(C)C)C(=O)N12.CS(=O)(=O)O [BROMOCRIPTINE MESYLATE] | Compound metabolized

Test: as §1, with “Z-027” for “WLS-038”, “to” for “to human gut”, “ERS12561826” for “ERS12561745”
Settings: 2 µM

Row | SMILES | Bacterial Biotransformation
9 | CN(C)C(=O)Oc1cc(OC(=O)N(C)C)cc(C(O)CNC(C)(C)C)c1 (centres undefined) [BAMBUTEROL] | Compound NOT metabolized
10 | CC(C)C[C@H]1C(=O)N2CCC[C@H]2[C@]2(O)O[C@](NC(=O)[C@@H]3C=C4c5cccc6[nH]c(Br)c(c56)C[C@H]4N(C)C3)(C(C)C)C(=O)N12.CS(=O)(=O)O [BROMOCRIPTINE MESYLATE] | Compound metabolized

Settings: human gut metagenome, 24 h, 2 µM
Remark: another data set of the same source

Row | SMILES | Bacterial Biotransformation
11 | CN(C)C(=O)Oc1cc(OC(=O)N(C)C)cc(C(O)CNC(C)(C)C)c1 (centres undefined) [BAMBUTEROL] | Compound metabolized
12 | CC(C)C[C@H]1C(=O)N2CCC[C@H]2[C@]2(O)O[C@](NC(=O)[C@@H]3C=C4c5cccc6[nH]c(Br)c(c56)C[C@H]4N(C)C3)(C(C)C)C(=O)N12.CS(=O)(=O)O [BROMOCRIPTINE MESYLATE] | Compound metabolized

Settings: human gut metagenome, 24 h, 2 µM
Remark: another data set of the same source

Row | SMILES | Bacterial Biotransformation
13 | CN(C)C(=O)Oc1cc(OC(=O)N(C)C)cc(C(O)CNC(C)(C)C)c1 (centres undefined) [BAMBUTEROL] | Compound NOT metabolized
14 | CC(C)C[C@H]1C(=O)N2CCC[C@H]2[C@]2(O)O[C@](NC(=O)[C@@H]3C=C4c5cccc6[nH]c(Br)c(c56)C[C@H]4N(C)C3)(C(C)C)C(=O)N12.CS(=O)(=O)O [BROMOCRIPTINE MESYLATE] | Compound metabolized

Test: as §1, with “Z-002” for “WLS-038”, “rabbit” for “human”, “ERS12561802” for “ERS12561745”
Settings: 2 µM

Row | SMILES | Bacterial Biotransformation
15 | CN(C)C(=O)Oc1cc(OC(=O)N(C)C)cc(C(O)CNC(C)(C)C)c1 (centres undefined) [BAMBUTEROL] | Compound metabolized
16 | CC(C)C[C@H]1C(=O)N2CCC[C@H]2[C@]2(O)O[C@](NC(=O)[C@@H]3C=C4c5cccc6[nH]c(Br)c(c56)C[C@H]4N(C)C3)(C(C)C)C(=O)N12.CS(=O)(=O)O [BROMOCRIPTINE MESYLATE] | Compound metabolized

Settings: human gut metagenome, 24 h, 2 µM
Remark: another data set of the same source

Row | SMILES | Bacterial Biotransformation
17 | CN(C)C(=O)Oc1cc(OC(=O)N(C)C)cc(C(O)CNC(C)(C)C)c1 (centres undefined) [BAMBUTEROL] | Compound metabolized
18 | CC(C)C[C@H]1C(=O)N2CCC[C@H]2[C@]2(O)O[C@](NC(=O)[C@@H]3C=C4c5cccc6[nH]c(Br)c(c56)C[C@H]4N(C)C3)(C(C)C)C(=O)N12.CS(=O)(=O)O [BROMOCRIPTINE MESYLATE] | Compound metabolized

Settings: human gut metagenome, 24 h, 2 µM
Remark: another data set of the same source

Row | SMILES | Bacterial Biotransformation
19 | CN(C)C(=O)Oc1cc(OC(=O)N(C)C)cc(C(O)CNC(C)(C)C)c1 (centres undefined) [BAMBUTEROL] | Compound NOT metabolized
20 | CC(C)C[C@H]1C(=O)N2CCC[C@H]2[C@]2(O)O[C@](NC(=O)[C@@H]3C=C4c5cccc6[nH]c(Br)c(c56)C[C@H]4N(C)C3)(C(C)C)C(=O)N12.CS(=O)(=O)O [BROMOCRIPTINE MESYLATE] | Compound NOT metabolized

Settings: human gut metagenome, 24 h, 2 µM
Remark: another data set of the same source

Row | SMILES | Bacterial Biotransformation
21 | CN(C)C(=O)Oc1cc(OC(=O)N(C)C)cc(C(O)CNC(C)(C)C)c1 (centres undefined) [BAMBUTEROL] | Compound NOT metabolized
22 | CC(C)C[C@H]1C(=O)N2CCC[C@H]2[C@]2(O)O[C@](NC(=O)[C@@H]3C=C4c5cccc6[nH]c(Br)c(c56)C[C@H]4N(C)C3)(C(C)C)C(=O)N12.CS(=O)(=O)O [BROMOCRIPTINE MESYLATE] | Compound NOT metabolized

Settings: human gut metagenome, 24 h, 2 µM
Remark: another data set of the same source

Row | SMILES | Bacterial Biotransformation
23 | CN(C)C(=O)Oc1cc(OC(=O)N(C)C)cc(C(O)CNC(C)(C)C)c1 (centres undefined) [BAMBUTEROL] | Compound NOT metabolized

Test: as §1, with “WLS-069” for “WLS-038”, “ERS12561748” for “ERS12561745”
Settings: 2 µM

Row | SMILES | Bacterial Biotransformation
24 | CN(C)C(=O)Oc1cc(OC(=O)N(C)C)cc(C(O)CNC(C)(C)C)c1 (centres undefined) [BAMBUTEROL] | Compound NOT metabolized
25 | CC(C)C[C@H]1C(=O)N2CCC[C@H]2[C@]2(O)O[C@](NC(=O)[C@@H]3C=C4c5cccc6[nH]c(Br)c(c56)C[C@H]4N(C)C3)(C(C)C)C(=O)N12.CS(=O)(=O)O [BROMOCRIPTINE MESYLATE] | Compound metabolized

Test: as §1, with “Z-012” for “WLS-038”, “to” for “to human gut”, “ERS12561812” for “ERS12561745”
Settings: 2 µM

Row | SMILES | Bacterial Biotransformation
26 | CN(C)C(=O)Oc1cc(OC(=O)N(C)C)cc(C(O)CNC(C)(C)C)c1 (centres undefined) [BAMBUTEROL] | Compound NOT metabolized
27 | CC(C)C[C@H]1C(=O)N2CCC[C@H]2[C@]2(O)O[C@](NC(=O)[C@@H]3C=C4c5cccc6[nH]c(Br)c(c56)C[C@H]4N(C)C3)(C(C)C)C(=O)N12.CS(=O)(=O)O [BROMOCRIPTINE MESYLATE] | Compound metabolized

Settings: human gut metagenome, 24 h, 2 µM
Remark: another data set of the same source

Row | SMILES | Bacterial Biotransformation
28 | CN(C)C(=O)Oc1cc(OC(=O)N(C)C)cc(C(O)CNC(C)(C)C)c1 (centres undefined) [BAMBUTEROL] | Compound NOT metabolized
29 | CC(C)C[C@H]1C(=O)N2CCC[C@H]2[C@]2(O)O[C@](NC(=O)[C@@H]3C=C4c5cccc6[nH]c(Br)c(c56)C[C@H]4N(C)C3)(C(C)C)C(=O)N12.CS(=O)(=O)O [BROMOCRIPTINE MESYLATE] | Compound metabolized

Test: as §1, with “Z-016” for “WLS-038”, “mouse” for “human”, “ERS12561815” for “ERS12561745”
Settings: 2 µM

Row | SMILES | Bacterial Biotransformation
30 | CN(C)C(=O)Oc1cc(OC(=O)N(C)C)cc(C(O)CNC(C)(C)C)c1 (centres undefined) [BAMBUTEROL] | Compound NOT metabolized
31 | CC(C)C[C@H]1C(=O)N2CCC[C@H]2[C@]2(O)O[C@](NC(=O)[C@@H]3C=C4c5cccc6[nH]c(Br)c(c56)C[C@H]4N(C)C3)(C(C)C)C(=O)N12.CS(=O)(=O)O [BROMOCRIPTINE MESYLATE] | Compound metabolized

Test: as §1, with “Z-011” for “WLS-038”, “mouse” for “human”, “ERS12561811” for “ERS12561745”
Settings: 2 µM

Row | SMILES | Bacterial Biotransformation
32 | CN(C)C(=O)Oc1cc(OC(=O)N(C)C)cc(C(O)CNC(C)(C)C)c1 (centres undefined) [BAMBUTEROL] | Compound NOT metabolized
33 | CC(C)C[C@H]1C(=O)N2CCC[C@H]2[C@]2(O)O[C@](NC(=O)[C@@H]3C=C4c5cccc6[nH]c(Br)c(c56)C[C@H]4N(C)C3)(C(C)C)C(=O)N12.CS(=O)(=O)O [BROMOCRIPTINE MESYLATE] | Compound metabolized

Test: as §1, with “WLS-098” for “WLS-038”, “ERS12561754” for “ERS12561745”
Settings: 2 µM

Row | SMILES | Bacterial Biotransformation
34 | CN(C)C(=O)Oc1cc(OC(=O)N(C)C)cc(C(O)CNC(C)(C)C)c1 (centres undefined) [BAMBUTEROL] | Compound metabolized
35 | CC(C)C[C@H]1C(=O)N2CCC[C@H]2[C@]2(O)O[C@](NC(=O)[C@@H]3C=C4c5cccc6[nH]c(Br)c(c56)C[C@H]4N(C)C3)(C(C)C)C(=O)N12.CS(=O)(=O)O [BROMOCRIPTINE MESYLATE] | Compound metabolized

Test: as §1, with “WLS-240” for “WLS-038”, “ERS12561773” for “ERS12561745”
Settings: 2 µM

Row | SMILES | Bacterial Biotransformation
36 | CN(C)C(=O)Oc1cc(OC(=O)N(C)C)cc(C(O)CNC(C)(C)C)c1 (centres undefined) [BAMBUTEROL] | Compound metabolized
37 | CC(C)C[C@H]1C(=O)N2CCC[C@H]2[C@]2(O)O[C@](NC(=O)[C@@H]3C=C4c5cccc6[nH]c(Br)c(c56)C[C@H]4N(C)C3)(C(C)C)C(=O)N12.CS(=O)(=O)O [BROMOCRIPTINE MESYLATE] | Compound NOT metabolized

Settings: human gut metagenome, 24 h, 2 µM
Remark: another data set of the same source

Row | SMILES | Bacterial Biotransformation
38 | CN(C)C(=O)Oc1cc(OC(=O)N(C)C)cc(C(O)CNC(C)(C)C)c1 (centres undefined) [BAMBUTEROL] | Compound metabolized
39 | CC(C)C[C@H]1C(=O)N2CCC[C@H]2[C@]2(O)O[C@](NC(=O)[C@@H]3C=C4c5cccc6[nH]c(Br)c(c56)C[C@H]4N(C)C3)(C(C)C)C(=O)N12.CS(=O)(=O)O [BROMOCRIPTINE MESYLATE] | Compound metabolized
